Results published in patent publication US9451775B2, “Heterocyclic compounds as pesticides” (Bayer Intellectual Property GmbH, priority 2008, dated 2016).
Where two headings read alike, the source gives them in different places.

Legend:
[1] = tested on: green peach aphid (Myzus persicae); experiment: Myzus test (spray treatment); format: in vivo; conditions: foliar, application rate of 500 g/ha, sprayed Chinese cabbage leaf discs, read-out: activity (effect in %, aphids killed)
Method: Myzus Test (Spray Treatment)
• Solvents: 78.0 parts by weight of acetone • 1.5 parts by weight of dimethylformamide • Emulsifier: 0.5 part by weight of alkylaryl polyglycol ether
To produce a suitable preparation of active compound, 1 part by weight of active compound is mixed with the stated amounts of solvents and emulsifier, and the concentrate is diluted with emulsifier-containing water to the desired concentration.
Discs of leaves of Chinese cabbage (Brassica pekinensis) which are heavily infested by all stages of the green peach aphid (Myzus persicae) are sprayed with an active compound preparation of the desired concentration.
After the desired period of time, the effect in % is determined. 100% means that all aphids have been killed; 0% means that none of the aphids have been killed.

[2] = logP determination by HPLC (formic acid method); format: physicochemical; conditions: reversed-phase HPLC column (C18), read-out: logP (HCOOH)
Summary of the method: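 Reversed-phase C18 HPLC at 55 °C, pH 3.4, with a 4.25 min gradient from 10% to 95% acetonitrile (formic acid-modified water/acetonitrile phases). logP was derived from retention time by linear interpolation between unbranched alkan-2-ones (C3-C16) of known logP.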

[3] = pH 3.4, HPLC on reversed-phase column (C18), acidic range (pH 3.4), 55° C.
[4] = pH 3.4, values printed in the text of the preparation examples, formic acid method

Row | SMILES | pest or weed control at 500 g/ha [1] [%] | chromatographic logP [2, 3] | chromatographic logP [2, 4]
1 | COc1cc(OC)nc(-c2noc(-c3sc(-c4cccnc4)nc3C)n2)n1 [compound 74] | ≥ 80 | 2.81 | –
2 | Cn1nc(-c2cccnc2)cc1-c1ccn(-c2ncccn2)n1 [Preparation Example 11] | ≥ 80 | 1 | 1
3 | Cc1nc(-c2cncnc2)sc1-c1cccc(-c2ncccn2)n1 [compound 150] | ≥ 80 | 1.76 | –
4 | Cc1nc(-c2cccnc2)sc1-c1cncc(-c2cc(C)n(C)n2)n1 [compound 43] | ≥ 80 | 1.86 | –
5 | Cc1nc(-c2cccnc2)sc1-c1cccc(C(F)(F)F)c1 [compound 17] | ≥ 80 | 3.55 | –
6 | COC(=O)/C(=N\O)c1nccc(-c2sc(-c3cccnc3)nc2C)n1 [compound 53] | ≥ 80 | 1.58 | –
7 | c1cncc(-c2nnc(-c3cccnc3)s2)c1 [compound 163] | ≥ 80 | 1.07 | –
8 | Cc1nc(-c2cccnc2)sc1-c1ccn(C(=O)NC(C)COC(C)C)n1 (stereo not drawn) [compound 117] | ≥ 80 | 3.18 | –
9 | Cc1nc(-c2cccnc2)sc1-c1ccnc(-c2cnccn2)n1 [compound 51] | ≥ 80 | 1.59 | –
10 | c1cnc(-c2nccc(-c3cnc(-c4cccnc4)s3)n2)nc1 [compound 88] | ≥ 80 | 1.05 | –
11 | c1cnc(-c2cccc(-c3cnc(-c4cccnc4)s3)n2)nc1 [Preparation Example 5, 2-[6-(2-Pyridin-3-ylthiazol-5-yl)pyridin-2-yl]pyrimidine] | ≥ 80 | 1.53 | 1.53
12 | CNC(=S)n1ccc(-c2sc(-c3cccnc3)nc2C)n1 [compound 137] | ≥ 80 | 2.65 | –
13 | CCOc1cc(OCC)nc(-n2ccc(-c3sc(-c4cccnc4)nc3C)n2)n1 [compound 79] | ≥ 80 | 3.94 | –
14 | Cc1nc(-c2cccnc2)sc1-c1ccn(C(=O)NC2CCCC2)n1 [compound 124] | ≥ 80 | 3.09 | –
15 | Cn1nc(-c2cccnc2)cc1-c1cc[nH]n1 [compound 170] | ≥ 80 | 0.42 | –
16 | Cc1nc(-c2nccc(-c3sc(-c4cccnc4)nc3C)n2)cs1 [compound 56] | ≥ 80 | 2.08 | –
17 | Cc1cccc(-c2noc(-c3sc(-c4cccnc4)nc3C)n2)n1 [compound 139] | ≥ 80 | 2.61 | –
18 | Cc1nc(-c2cccnc2)sc1-c1ccc(C(F)(F)F)nc1 [compound 144] | ≥ 80 | 2.72 | –
19 | Cc1nc(-c2cccnc2)sc1-c1nnc(C(F)(F)F)s1 [compound 102] | ≥ 80 | 2.85 | –
20 | COCc1nccc(-c2cc(-c3cccnc3)nn2C)n1 [compound 167] | ≥ 80 | 0.83 | –

Row | SMILES | pest or weed control at 500 g/ha [1] [%] | chromatographic logP [2, 3] | chromatographic logP [2, 4]
21 | COC(OC)c1ccn(-c2sc(-c3cccnc3)nc2C)n1 [compound 19] | ≥ 80 | 1.77 | –
22 | Cc1nc(-c2cccnc2)sc1-n1ccc(Br)n1 [compound 20] | ≥ 80 | 2.28 | –
23 | Cc1nc(-c2cccnc2)sc1-n1ccc(-c2ccccc2F)n1 [compound 36] | ≥ 80 | 3.33 | –
24 | Cc1nc(-c2cccnc2)sc1-c1ccn(C(=O)NC2CCCCC2)n1 [compound 122] | ≥ 80 | 3.56 | –
25 | Cc1nc(-c2cccnc2)sc1-n1ccc(-c2ncccn2)n1 [Preparation Example 3, 2-[1-(4-Methyl-2-pyridin-3-ylthiazol-5-yl)-1H-pyrazol-3-yl]pyrimidine] | ≥ 80 | 1.48 | 1.48
26 | Cn1nc(-c2cccnc2)cc1-c1ccn(Cc2ccccn2)n1 [compound 166] | ≥ 80 | 0.91 | –
27 | Cc1nc(-c2cccnc2)sc1-c1cc(C(F)(F)F)ncn1 [compound 111] | ≥ 80 | 2.8 | –
28 | Cc1nc(-c2cccnc2)sc1-c1cccnc1 [compound 18] | ≥ 80 | 1.1 | –
29 | Cc1nc(-c2cccnc2)sc1-c1cccc(Cl)n1 [compound 31] | ≥ 80 | 2.66 | –
30 | Cc1nc(-c2cccnc2)sc1-n1ccc(-c2ccccc2C(F)(F)F)n1 [compound 38] | ≥ 80 | 3.94 | –
31 | Cc1nc(-c2cccnc2)sc1-n1ccc([N+](=O)[O-])n1 [compound 35] | ≥ 80 | 1.92 | –
32 | Cc1nc(-c2cccnc2)sc1-c1ccn(C(=O)NC(C)C)n1 [compound 103] | ≥ 80 | 2.55 | –
33 | c1cncc(-c2nnc(-c3ccncc3)s2)c1 [compound 158] | ≥ 80 | 1.41 | –
34 | CSCCNC(=O)n1ccc(-c2sc(-c3cccnc3)nc2C)n1 [compound 129] | ≥ 80 | 2.34 | –
35 | Cc1nc(-c2cccnc2)sc1-c1cccc(N2CC(C)OC(C)C2)n1 (stereo not drawn) [compound 98] | ≥ 80 | 3.55 | –
36 | Clc1ccc(-c2cnc(-c3cccnc3)s2)cc1 [compound 13] | ≥ 80 | 3.23 | –
37 | Cc1nc(-c2cccnc2)sc1-c1cccc(-n2ccnn2)n1 [compound 154] | ≥ 80 | 2.13 | –
38 | Cc1nc(-c2cccnc2)sc1-c1ccn(-c2cccc(Cl)n2)n1 [compound 92] | ≥ 80 | 3.84 | –
39 | Cc1nc(-c2cccnc2)sc1-c1ccn(-c2nnc(C(F)F)s2)n1 [compound 85] | ≥ 80 | 2.8 | –
40 | CCCNC(=O)n1ccc(-c2sc(-c3cccnc3)nc2C)n1 [compound 132] | ≥ 80 | 2.46 | –

Row | SMILES | pest or weed control at 500 g/ha [1] [%] | chromatographic logP [2, 3] | chromatographic logP [2, 4]
41 | COCCCNC(=S)n1ccc(-c2sc(-c3cccnc3)nc2C)n1 [compound 135] | ≥ 80 | 3.28 | –
42 | Cc1nc(-c2cccnc2)sc1-c1ccn(-c2ncccn2)n1 [compound 22] | ≥ 80 | 1.74 | –
43 | Cc1nc(-c2cccnc2)sc1-n1cc(-c2ccccn2)cn1 [compound 39] | ≥ 80 | 1.55 | –
44 | Cc1nc(-c2cccnc2)sc1-n1ccc(-c2ccccn2)n1 [compound 15] | ≥ 80 | 1.67 | –
45 | Cc1nc(-c2cccnc2)sc1-c1nc(-c2nc(C)c(C)c(C)n2)no1 [compound 73] | ≥ 80 | 2.34 | –
46 | Cc1nc(-c2cccnc2)sc1-c1ccnc(-c2cccc(Cl)n2)n1 [compound 46] | ≥ 80 | 2.47 | –
47 | CCC(COC)NC(=O)n1ccc(-c2sc(-c3cccnc3)nc2C)n1 (stereo not drawn) [compound 116] | ≥ 80 | 2.61 | –
48 | Cc1nc(-c2cccnc2)sc1-c1ccn(-c2nnc(C(F)Cl)s2)n1 (stereo not drawn) [compound 110] | ≥ 80 | 3.24 | –
49 | c1cnc(-c2cccc(-c3nnc(-c4cncnc4)s3)n2)nc1 [compound 164] | ≥ 80 | 1.39 | –
50 | Cc1nc(-c2cccnc2)sc1-c1nc(C(C)C)no1 [compound 62] | ≥ 80 | 3.23 | –
51 | Cc1cccc(-c2nccc(-c3sc(-c4cccnc4)nc3C)n2)n1 [compound 54] | ≥ 80 | 1.49 | –
52 | Cc1nc(-c2cccnc2)sc1-c1ccn(C(=O)NC(C)(C)C)n1 [compound 119] | ≥ 80 | 3.23 | –
53 | Cc1nc(-c2cccnc2)sc1-c1nc(-c2cc3ccccc3cn2)no1 [compound 72] | ≥ 80 | 3.11 | –
54 | Cc1cc(C)nc(-c2nccc(-c3sc(-c4cccnc4)nc3C)n2)c1 [compound 65] | ≥ 80 | 1.36 | –
55 | Cc1nc(-c2cccnc2)sc1-c1ccnc(-n2[nH]c(C(F)(F)F)cc2=O)n1 [compound 66] | ≥ 80 | 2.9 | –
56 | Cc1nc(-c2cccnc2)sc1-c1nc(C(F)(F)F)no1 [compound 64] | ≥ 80 | 3.34 | –
57 | Cc1cc(-c2nccc(-c3sc(-c4cccnc4)nc3C)n2)n(C)n1 [compound 44] | ≥ 80 | 2.4 | –
58 | COc1cc(OC)nc(-n2ccc(-c3sc(-c4cccnc4)nc3C)n2)n1 [compound 81] | ≥ 80 | 2.8 | –
59 | Cc1nc(-c2cccnc2)sc1-c1ccn(Cc2ncccn2)n1 [compound 146] | ≥ 80 | 1.43 | –
60 | Cc1nc(-c2cccnc2)sc1-c1ccnc(C(F)(F)C(F)(F)F)n1 [compound 142] | ≥ 80 | 3.35 | –
